Non-standard residues stand in square brackets, D forms with d. Primed or numbered codes have the meaning given here. No end group written: not given here. PEG12(3) = not defined here
Tests used:
[1] = system: Male DIO mice; assay: Metabolic parameters in diet induced obese (DIO) mice, Example 20; assay type: in vivo, mouse; settings: N = 8
Protocol: Male C57BL/6 mice were maintained on a high fat diet for 18 weeks to develop diet induced obesity. Animals were randomized to treatment groups based on blood glucose levels and body weight. The peptides of the invention were administered to groups of male DIO mice once or twice daily by intraperitoneal injection at a dose of 5 mg/kg/dose for 8 to 10 days (N=8 animals per treatment group). Additional groups of male DIO mice (n=8) received vehicle (water) alone administered once or twice daily by intraperitoneal injection. Body weight, blood glucose levels and food intake were monitored. Body mass distribution (fat vs lean) was determined by quantitative whole body NMR prior to dosing and at the end of dosing.

[2] = system: 3T3-L1 adipocytes; assay: Free fatty acid levels in cultured 3T3-L1 mouse adipocytes (Example 4, 25 μM); settings: for Free Fatty Acid Levels, Percent of Control Value: peptide 25 μM, 20-22 h then 3 h with isoproterenol 1 nM, relative to isoproterenol control
Protocol: Mouse 3T3-L1 adipocytes were seeded at 3,000 cells per well in 96-well plates in Pre-adipocyte Medium (Zen-Bio, Durham, N.C.) and grown to confluence at 37° C. in a humidified atmosphere of 5% CO2/95% air. Two days after confluence, cells were placed in Adipocyte Differentiation Medium (Zen-Bio, Durham, N.C.) and cultured for three additional days at 37° C. in a humidified atmosphere of 5% CO2/95% air. The culture media was then replaced with Adipocyte Maintenance Medium (Zen-Bio) and the cells maintained for an additional 9-12 days at 37° C. in a humidified atmosphere of 5% CO2/95% air with partial medium replacement every other day. Following 12-15 days' differentiation, test peptides were added to a final concentration of 25 μM and incubated for 20-22 hours in Adipocyte Maintenance Medium. After 20-22 hours, isoproterenol (1 nM) was added to all wells except untreated controls and test peptides were replenished. Cells were incubated for a further 3 hours in Assay Buffer (Zen-Bio). Free fatty acid concentrations in the media were determined using a Free Fatty Acid Assay Kit (Zen-Bio) according to the manufacturer's instructions using a plate reader (540 nm). Absorbance values were corrected for untreated background and expressed relative to isoproterenol treated cells. Treatment with isoproterenol (1 nM) alone was used as the free fatty acid level stimulatory control.

[3] = system: 3T3-L1 mouse adipocytes; assay: Free fatty acid levels in cultured 3T3-L1 mouse adipocytes and insulin dependence (Example 17); assay type: cell-based; settings: insulin 10 nM, positive control
Protocol: The effect of the peptides on fatty acid metabolism can be assessed using an assay to monitor free fatty acid levels produced by cultured cells such as mouse adipocytes. […] Following 3 h incubation, conditioned medium from each well was transferred to a fresh 96-well plate. […] Absorbance values were expressed as percent control activity relative to 0.1 nM isoproterenol treated cells (no insulin) for 10 μM peptide alone or 0.25 nM insulin treated cells (with insulin) for 10 μM peptide in presence of 0.25 nM insulin. […] Data are presented as averages values from 2-3 independent experiments with each data point performed in triplicate.

[4] = system: H4-IIE cells; assay: Glucose production in cultured H4-IIE cells and insulin dependence; assay type: cell-based, rat; settings: insulin 800 μM, modest inhibitor control
Protocol: The effect of the peptides on glucose homeostasis can be assessed using an assay to monitor glucose production by cultured cells such as rat hepatocytes. […] Following 24 h incubation, conditioned medium from each well was transferred to a fresh 96-well plate. Glucose concentrations in the medium were determined using a Glucose Assay kit (Abcam; Cambridge, Mass.) according to the manufacturer's instructions; absorbance measured using a Cytation 3 plate reader at 570 nm (BioTek, Winooski, Vt.). […] Untreated cells were used as reference for maximal glucose production. […] Insulin at 800 μM was used as a modest inhibitor glucose production. […] Data are presented as averages values from 2-4 independent experiments with each data point performed in triplicate.

[5] = system: 3T3-L1 mouse adipocytes; assay: Free fatty acid levels in 3T3-L1 mouse adipocytes (Example 12, 10 μM); assay type: cell-based; settings: insulin 100 nM, positive control
Protocol: The effect of the peptides on fatty acid metabolism can be assessed using an assay of free fatty acid levels in cultured cells such as mouse adipocytes. Peptides were initially prepared as 10 mM stock in DMSO, diluted to 1 mM in H2O, and used at a final concentration of 10 μM (0.1% DMSO). […] Insulin at 100 nM was added to control wells.

[6] = system: C2C12 cells; assay: Cellular ROS levels induced by TBHP in C2C12 cells (DCFDA); assay type: cell-based, mouse; settings: sulforaphane 10 μM, protective control
Protocol: The protective or synergistic effect of the peptides on cellular levels of reactive oxygen species (ROS) induced by oxidative stress can be assessed using an assay of ROS in cultured cells such as mouse myoblasts exposed to a suitable oxidative stress. Peptides were initially prepared as 10 mM stock in DMSO, diluted to 1 mM in H2O, and added at a final concentration of 10 μM (0.1% DMSO). […] TBHP was used at final concentration of 100 μM. Sulforaphane at final concentration of 10 μM was used as a protective control against TBHP induced ROS production. […] C2C12 cells were grown in DMEM supplemented with 20% FBS with 100 IU/ml penicillin and 100 μg/ml streptomycin. […] C2C12 cells were seeded at 7,500 cells per well on 96-well plates. […] After 18-20 hours of incubation the cells were loaded with DCFDA for 45 min. TBHP at 100 μM was then added to the appropriate wells for 1 hour. ROS activity was determined using a DCFDA Cellular ROS Detection Assay kit (Abcam, Cambridge, Mass.) according to the manufacturer's instructions. Fluorescence in each sample well on the plate was measured using a Cytation 3 plate reader at Ex/Em=485/535 nm (BioTek, Winooski, Vt.). Activity was calculated relative to TBHP control. The relative standard deviation of the sulforaphane control was <20%. The ROS level produced by the sulforaphane control in the presence of TBHP was 52% of the TBHP control.

[7] = system: MDA-MB-231 cells; assay: Cell viability, MTS assay in MDA-MB-231 cells; assay type: cell-based, human
Protocol: Test compounds and reference compound staurosporine (Selleckchem) were all dissolved with DMSO at 10 mM stock. […] Activity was calculated relative to DMSO control. […] Cell viability was 3% of the DMSO control value for Staurosporine (10 μM).

[8] = system: C2C12 cells; assay: Caspase 3/7 activity in C2C12 cells; assay type: cell-based, mouse; settings: staurosporine 100 nM, positive control
Protocol: The effect of the peptides on cell death/survival can be assessed using a caspase-3/7 assay in cultured cells such as mouse myoblast cells. Peptides were initially prepared as 10 mM stock in DMSO, diluted to 1 mM in H2O, and used at a final concentration of 10 μM (0.1% DMSO). […] Staurosporine (Abcam, Cambridge, Mass.) was dissolved at 10 mM in DMSO as a stock solution. Caspase-Glo 3/7 Assay Reagent was purchased from Promega (Madison, Wis.). C2C12 cell line was purchased from American Type Culture Collection (Manassas, Va.). C2C12 cells were grown in DMEM supplemented with 20% FBS with 100 IU/ml penicillin and 100 μg/ml streptomycin. […] C2C12 cells were seeded at 4,000 cells per well on 96-well plates. […] Caspase 3/7 activity was determined using a Caspase-Glo 3/7 Assay kit according to the manufacturer's instructions. Luminescence for each sample well on the plate was measured using a Cytation 3 plate reader (BioTek, Winooski, Vt.). Activity was calculated relative to 0.1% DMSO control.

[9] = system: MDA-MB-231 cells; assay: Caspase 3/7 activity in MDA-MB-231 cells (Caspase-Glo 3/7); assay type: cell-based, human
Protocol: The effect of the peptides on cell death/survival can be assessed using a caspase-3 assay. Peptides were dissolved with DMSO at 10 mM stock. […] Staurosporine (Selleckchem) was dissolved with DMSO at 1 mM stock. Caspase-Glo 3/7 Assay Reagent was purchased from Promega (Madison, Wis.). MDA-MB-231 human breast cancer cell line was purchased from American Type Culture Collection (Manassas, Va.). MDA-MB-231 cells were grown in DMEM Medium supplemented with 10% FBS. 100 μg/ml penicillin and 100 μg/ml streptomycin were added to the culture medium. […] 25 μl of Caspase-Glo 3/7 Assay Reagent was added to each well and incubated at 37° C., 5% CO2 for 1 hour. Luminescence for each sample well on the plate was measured by Envision 2104 Multilabel Reader (PerkinElmer, Santa Clara, Calif.). Activity was calculated relative to DMSO control.

[10] = system: MCF-7 cells; assay: Cell viability, MTS assay in MCF-7 cells
Protocol: Peptides and reference compound staurosporine (Selleckchem) were dissolved with DMSO at 10 mM stock. CellTiter 96@ AQueous One Solution Reagent (MTS assay reagent) was purchased from Promega (Madison, Wis.). MCF-7 human breast cancer cell line was purchased from American Type Culture Collection (Manassas, Va.). MCF-7 cells were grown in EMEM Medium supplemented with 10% FBS and 0.01 mg/ml human recombinant insulin. 100 μg/ml penicillin and 100 μg/ml streptomycin were added to the culture medium. Cells were incubated with test peptides at 10 μM at 37° C. in a humidified atmosphere of 5% CO2 and 95% air for 72 hours. 5 μl of CellTiter 96@ AQueous One Solution Reagent (MTS assay reagent) was added to each well and incubated at 37° C., 5% CO2 for 5 hours. Absorbance at 492 nm was recorded by Envision 2104 Multilabel Reader. Treatment with DMSO alone was used as the cell viability activity control. The relative standard deviation of the DMSO control was 3%.

[11] = 5 mg/kg/dose BID intraperitoneal, 8 days
[12] = 5 mg/kg/dose QD intraperitoneal, 10 days
[13] = staurosporine 10 μM, positive control

RRMMGMVFQCLCG(dA) (RRMMGMVFQCLCG[dA]; cysteine pairing not given here) [SEQ ID NO: 8]
Difference from Vehicle Control: Decrease from Baseline in Blood Glucose [1, 11]: -14.3 mg/dL | Difference from Vehicle Control: Decrease from Baseline in Body Weight [1, 11]: −5.66% | Difference from Vehicle Control: Decrease from Baseline in Fat Mass [1, 11]: -2.15 g

RRMMGMVEQSLCG(dA) (RRMMGMVEQSLCG[dA]) [SEQ ID NO: 38]
Difference from Vehicle Control: Decrease from Baseline in Blood Glucose [1, 12]: -24.1 mg/dL | Difference from Vehicle Control: Decrease from Baseline in Body Weight [1, 12]: −3.12%

3 (RRIIGIVFQCLCGL) [compound 3]
Free Fatty Acid Levels, Percent of Control Value [2]: 89%

RRMMGMVFQSLCG(dA) (RRMMGMVFQSLCG[dA]) [SEQ ID NO: 15]
Difference from Vehicle Control: Decrease from Baseline in Blood Glucose [1, 12]: -3.38 mg/dL | Difference from Vehicle Control: Decrease from Baseline in Body Weight [1, 12]: −4.97% | Difference from Vehicle Control: Decrease from Baseline in Fat Mass [1, 12]: -2.19 g

(PEG12)KRRIIGIVFQCLCG(dA) ([PEG12(3)]KRRIIGIVFQCLCG[dA]; cysteine pairing not given here) [SEQ ID NO: 42]
Difference from Vehicle Control: Decrease from Baseline in Blood Glucose [1, 12]: -10.7 mg/dL | Difference from Vehicle Control: Decrease from Baseline in Body Weight [1, 12]: −2.94%

5 (RRIIGIVFQCLC) [compound 5]
Free Fatty Acid Levels, Percent of Control Value [2]: 115%

insulin [reference compound]
Free fatty acid levels, % of isoproterenol control value [3]: < 5% | Glucose levels, % of untreated control value [4]: 20-50% | Free fatty acid levels, % of isoproterenol control value ([2]; insulin 100 nM, positive control): < 5% | Free fatty acid levels, % of isoproterenol control value [5]: < 5%

C[S+]([O-])CCCCN=C=S (centres unmarked) [sulforaphane, reference compound]
ROS level in the presence of TBHP, % of TBHP control [6]: 52%

4 (RRIIGIVFQCLCG) [compound 4]
Free Fatty Acid Levels, Percent of Control Value [2]: 100%

CN[C@@H]1C[C@H]2O[C@@](C)([C@@H]1OC)n1c3ccccc3c3c4c(c5c6ccccc6n2c5c31)C(=O)NC4 [staurosporine, reference compound]
Cell viability, % of DMSO control value [7, 13]: 3% | Caspase 3/7 activity, % of background-corrected DMSO control value [8]: 670% | Caspase activity, % of background-corrected DMSO control value ([9]; staurosporine 0.05 nM, positive control): 130% | Cell viability, % of background corrected DMSO control value [10, 13]: < 5%

(PEG12)KRRMMGMVFQCLCG(dA) (KRRMMGMVFQCLCGA; N-terminal PEG12; C-terminal D-alanine; (1)..(1) PEG12; (15)..(15) d-Ala) [SEQ ID NO: 20]
Difference from Vehicle Control: Decrease from Baseline in Blood Glucose [1, 12]: -0.75 mg/dL | Difference from Vehicle Control: Decrease from Baseline in Body Weight [1, 12]: −3.59% | Difference from Vehicle Control: Decrease from Baseline in Fat Mass [1, 12]: -1.78 g

2 (MRRIIGIVFQCLCGL) [compound 2]
MTS Assay, Percent of Control Activity ([7]; 72 hours, relative to DMSO control, concentration not given): 79% | Caspase 3/7 Activity, Percent of Control Activity ([9]; peptide 10 μM, 18 hours, relative to DMSO control): 62% | Free Fatty Acid Levels, Percent of Control Value [2]: 97% | MTS Assay, Percent of Control Activity ([10]; peptide 10 μM, 72 hours, relative to DMSO control): 67%

Source: patent publication US20220324909A1, “THERAPEUTIC PEPTIDES” (COHBAR, INC., priority 2019, published 2022)
